Experimental data from ChEMBL document CHEMBL1156648, “Tetrahdroxysqualene from Rhus taitensis shows antimycobacterial activity against Mycobacterium tuberculosis” (J Nat Prod, 2008).
≈ marks a conversion by molar mass, not a printed value. Calls of active or inactive are those of the source. No cut-off for these calls is given here.

Key:
[1] = tested on: Mycobacterium tuberculosis; assay: Antimycobacterial activity against Mycobacterium tuberculosis H37Ra after 4 days by MTT assay; type: functional; details: 96 h
[2] = tested on: Mycobacterium tuberculosis; assay: Antimycobacterial activity against Mycobacterium tuberculosis H37Rv by MTT assay after 4 days by MTT assay; type: functional; details: 96 h
[3] = Cytotoxicity against human CEM-TART cells after 72 hrs by MTT assay; type: cell-based
[4] = tested on: Mycobacterium tuberculosis; assay: Antimycobacterial activity against Mycobacterium tuberculosis H37Rv at 100 ug/ml after 4 days by MTT assay; type: functional; details: 96 h, read-out: GI
[5] = tested on: Mycobacterium tuberculosis; assay: Antimycobacterial activity against Mycobacterium tuberculosis H37Ra at 200 ug/ml after 4 days by MTT assay; type: functional, organism-based

SMILES	MIC [1]	MIC [2]	EC50 [3]	inhibition of growth at 100 µg/mL [4]	Activity [5]
CO[C@H]1/C=C/O[C@@]2(C)Oc3c(C)c(O)c4c(O)c(c(/C=N/N5CCN(C)CC5)c(O)c4c3C2=O)NC(=O)/C(C)=C\C=C\[C@H](C)[C@H](O)[C@@H](C)[C@@H](O)[C@@H](C)[C@H](OC(C)=O)[C@@H]1C [RIFAMPIN]	0.0025 µg/mL (≈ 0.00304 µM)	0.0025 µg/mL (≈ 0.00304 µM)	–	–	–
COc1cccc2c1C(=O)c1c(O)c3c(c(O)c1C2=O)C[C@@](O)(C(=O)CO)C[C@@H]3O[C@H]1C[C@H](N)[C@H](O)[C@H](C)O1 [DOXORUBICIN]	–	–	0.0044 µg/mL (≈ 0.0081 µM)	–	–
C/C(=C\CC/C(C)=C/CC/C=C(\C)CC/C=C(\C)CCC=C(CO)CO)CCC=C(CO)CO [TETRAHYDROXYSQUALENE]	10 µg/mL (≈ 21.1 µM)	–	27.5 µg/mL (≈ 57.9 µM)	–	–
CC(C)=CCC/C(C)=C/CC/C(C)=C/CC/C=C(\C)CC/C=C(\C)CCC=C(C)C [SQUALENE]	–	100 µg/mL (≈ 243 µM)	–	99%	inactive
